Source: US11420947B2, “(S)-n-hydroxy-2-(2-(4-methoxyphenyl)butanamido)thiazole-5-carboxamide and pharmaceutically acceptable salts thereof” (TRANSLATIONAL DRUG DEVELOPMENT, LLC, priority 2018, dated 2022)

How the values were obtained:
Test in all cases: CellTiter-Glo cell viability assay
Type in all cases: cell-based
K562 = details: for IC50: Homo sapiens, K562, HEMATOPIETIC, CML, 72 hours
Procedure: (§1) Cell viability in the presence of varying concentrations of the above listed compounds at different time points was used to assess cytotoxicity and the effect of the compounds on cell proliferation.
(§2) Cell viability was measured by the CellTiter-Glo® cell viability assay from Promega (Madison, Wis.). The CellTiter-Glo® Luminescent Cell Viability Assay is a homogeneous method to determine the number of viable cells in culture based on quantitation of the ATP present, which signals the presence of metabolically active cells. Following treatment, CellTiter-Glo® is added to treatment wells and incubated at 37° C. luminescence values were measured at using a Molecular Devices Spectramax microplate reader
(§3) Cells were grown to 70% confluency, trypsinized, counted, and seeded in 96 well flat-bottom plates at a final concentration of 2.5×10^3-5×10^3 cells/well (Day 0). Cells were allowed to incubate in growth media for 24 hours. Treatment with the test agents or standard agents began on Day 1 and continued for 72 hours. At the 72-hour timepoint, treatment containing media was removed. Viable cell numbers are quantified by the CellTiter-Glo® cell viability assay as described above. Results from these studies were used to calculate an IC50 value (concentration of drug that inhibits cell growth by 50 percent of control) for each compound.
(§4) For single agent and combination studies, data from each experiment was collected and expressed as % Cell Growth using the following calculation: % Cell Growth=(ftest/fvehicle)×100
(§5) Where test is the fluorescence of the tested sample, and fvehicle is the fluorescence of the vehicle in which the drug is dissolved. Dose response graphs and IC50 values were generated using Prism 6 software (GraphPad) using the following equation: Y=(Top-Bottom)/(1+10^((logIC^50^-X)-HillSlope))

FaDu = details: for IC50: Homo sapiens, FaDu, H&N SQUAMOUS CELL, Pharynx, 72 hours
Procedure: as §1, §2, §3, §4, §5

SK-Hep-1 = details: for IC50: Homo sapiens, SK-HEP1, SK-Hep-1, LIVER, HCC, 72 hours
Procedure: as §1, §2, §3, §4, §5

BT474 = details: for IC50: Homo sapiens, BT-474, BT474, BREAST, Ductal Carcinoma, 72 hours
Procedure: as §1, §2, §3, §4, §5

SiHa = details: for IC50: Homo sapiens, SiHa, CERVICAL-SQUAMOUS CELL, 72 hours
Procedure: as §1, §2, §3, §4, §5

NCI-H820 = details: for IC50: NCI-H820, LUNG, NSCLC, 72 hours
Procedure: as §1, §2, §3, §4, §5

H660 = details: for IC50: NCI-H660, H660, PROSTATE, LN Met, 72 hours
Procedure: as §1, §2, §3, §4, §5

A427 = details: for IC50: Homo sapiens, A-427, A427, LUNG, Carcinoma, 72 hours
Procedure: as §1, §2, §3, §4, §5

RKO = details: for IC50: Homo sapiens, RKO, COLON, CRC, 72 hours
Procedure: as §1, §2, §3, §4, §5

H1650 = details: for IC50: Homo sapiens, NCI-H1650, H1650, LUNG, NSCLC, 72 hours
Procedure: as §1, §2, §3, §4, §5

MOLP-8 = details: for IC50: Homo sapiens, MOLP-8, HEMATOPIETIC, MM, 72 hours
Procedure: as §1, §2, §3, §4, §5

H1975 = details: for IC50: Homo sapiens, NCI-H1975, H1975, LUNG, NSCLC, 72 hours
Procedure: as §1, §2, §3, §4, §5

MSTO-211H = details: for IC50: Homo sapiens, MSTO-211H, LUNG, Mesothelioma, 72 hours
Procedure: as §1, §2, §3, §4, §5

Hs695T = details: for IC50: Homo sapiens, Hs 695T, Hs695T, MELANOMA, LN Met, 72 hours
Procedure: as §1, §2, §3, §4, §5

OCI-Ly3 = details: for IC50: Homo sapiens, OCI-Ly3, HEMATOPIETIC, DLBCL, 72 hours
Procedure: as §1, §2, §3, §4, §5

Panc-1 = details: for IC50: Homo sapiens, Panc-1, PANCREAS, Pancreatic, 72 hours
Procedure: as §1, §2, §3, §4, §5

RXF-393 = details: for IC50: Homo sapiens, RXF-393, RENAL, RCC, 72 hours
Procedure: as §1, §2, §3, §4, §5

HCC70 = details: for IC50: Homo sapiens, HCC70, BREAST, TNBC, 72 hours
Procedure: as §1, §2, §3, §4, §5

Huh-7-luc = details: for IC50: Huh-7-luc, LIVER, HCC, 72 hours
Procedure: as §1, §2, §3, §4, §5

AN3CA = details: for IC50: Homo sapiens, AN3-CA, AN3CA, ENDOMETRIAL, 72 hours
Procedure: as §1, §2, §3, §4, §5

H522 = details: for IC50: Homo sapiens, NCI-H522, H522, LUNG, NSCLC, 72 hours
Procedure: as §1, §2, §3, §4, §5

N87 = details: for IC50: N87, GASTRIC, Carcinoma, 72 hours
Procedure: as §1, §2, §3, §4, §5

MM1.S = details: for IC50: Homo sapiens, MM1.S, HEMATOPIETIC, MM, 72 hours
Procedure: as §1, §2, §3, §4, §5

Y79 = details: for IC50: Homo sapiens, Y79, RETINOBLASTOMA, Retina, 72 hours
Procedure: as §1, §2, §3, §4, §5

MiaPaCa = details: for IC50: Homo sapiens, MIA PaCa-2, MiaPaCa, PANCREAS, Pancreatic, 72 hours
Procedure: as §1, §2, §3, §4, §5

## CC[C@@H](C(=O)Nc1ncc(C(=O)NO)s1)c1ccc(OC)cc1 [#1b, (R)—N-hydroxy-2-(2-(4-methoxyphenyl)butanamido)thiazole-5-carboxamide]
K562
  IC50: 398 nM
FaDu
  IC50: 331 nM
SK-Hep-1
  IC50: 1000 nM
BT474
  IC50: 3020 nM
SiHa
  IC50: 2740 nM
NCI-H820
  IC50: 398 nM
H660
  IC50: 423 nM
A427
  IC50: 1440 nM
RKO
  IC50: 1360 nM
H1650
  IC50: 1200 nM
MOLP-8
  IC50: 32 nM
H1975
  IC50: 398 nM
MSTO-211H
  IC50: 352 nM
Hs695T
  IC50: 970 nM
OCI-Ly3
  IC50: 170 nM
Panc-1
  IC50: 2670 nM
RXF-393
  IC50: 884 nM
HCC70
  IC50: 341 nM
Huh-7-luc
  IC50: 493 nM
AN3CA
  IC50: 229 nM
H522
  IC50: 977 nM
N87
  IC50: 331 nM
MM1.S
  IC50: 71 nM
Y79
  IC50: 631 nM
MiaPaCa
  IC50: 289 nM

## CC[C@H](C(=O)Nc1ncc(C(=O)NO)s1)c1ccc(OC)cc1 [#1a, (S)—N-hydroxy-2-(2-(4-methoxyphenyl)butanamido)thiazole-5-carboxamide]
K562
  IC50: 78 nM
K562; ratio of IC50, K562
  #1/#1a: 1.86
  #1b/#1a: 5.1
FaDu
  IC50: 40 nM
FaDu; ratio of IC50, FaDu
  #1/#1a: 0.25
  #1b/#1a: 8.28
SK-Hep-1
  IC50: 149 nM
SK-Hep-1; ratio of IC50, SK-Hep-1
  #1/#1a: 2.51
  #1b/#1a: 6.71
BT474
  IC50: 145 nM
BT474; ratio of IC50, BT474
  #1/#1a: 6.9
  #1b/#1a: 20.83
SiHa
  IC50: 307 nM
SiHa; ratio of IC50, SiHa
  #1/#1a: 1.01
  #1b/#1a: 8.91
NCI-H820
  IC50: 54 nM
NCI-H820; ratio of IC50, NCI-H820
  #1/#1a: 1.57
  #1b/#1a: 7.37
H660
  IC50: 28 nM
H660; ratio of IC50, H660
  #1/#1a: 5.64
  #1b/#1a: 15.11
A427
  IC50: 186 nM
A427; ratio of IC50, A427
  #1/#1a: 1.66
  #1b/#1a: 7.77
RKO
  IC50: 145 nM
RKO; ratio of IC50, RKO
  #1/#1a: 1.84
  #1b/#1a: 9.37
H1650
  IC50: 174 nM
H1650; ratio of IC50, H1650
  #1/#1a: 2.09
  #1b/#1a: 6.91
MOLP-8
  IC50: 13 nM
MOLP-8; ratio of IC50, MOLP-8
  #1/#1a: 1
  #1b/#1a: 2.46
H1975
  IC50: 40 nM
H1975; ratio of IC50, H1975
  #1/#1a: 2.85
  #1b/#1a: 9.95
MSTO-211H
  IC50: 52 nM
MSTO-211H; ratio of IC50, MSTO-211H
  #1/#1a: 2.46
  #1b/#1a: 6.77
Hs695T
  IC50: 52 nM
Hs695T; ratio of IC50, Hs695T
  #1/#1a: 7.15
  #1b/#1a: 18.65
OCI-Ly3
  IC50: 35 nM
OCI-Ly3; ratio of IC50, OCI-Ly3
  #1/#1a: 1.86
  #1b/#1a: 4.86
Panc-1
  IC50: 302 nM
Panc-1; ratio of IC50, Panc-1
  #1/#1a: 2.09
  #1b/#1a: 8.85
RXF-393
  IC50: 113 nM
RXF-393; ratio of IC50, RXF-393
  #1/#1a: 3.52
  #1b/#1a: 7.82
HCC70
  IC50: 52 nM
HCC70; ratio of IC50, HCC70
  #1/#1a: 1.92
  #1b/#1a: 6.56
Huh-7-luc
  IC50: 68 nM
Huh-7-luc; ratio of IC50, Huh-7-luc
  #1/#1a: 2.72
  #1b/#1a: 7.25
AN3CA
  IC50: 47 nM
AN3CA; ratio of IC50, AN3CA
  #1/#1a: 1.4
  #1b/#1a: 4.87
H522
  IC50: 115 nM
H522; ratio of IC50, H522
  #1/#1a: 1.55
  #1b/#1a: 8.5
N87
  IC50: 18 nM
N87; ratio of IC50, N87
  #1/#1a: 6.67
  #1b/#1a: 18.39
MM1.S
  IC50: 12 nM
MM1.S; ratio of IC50, MM1.S
  #1/#1a: 2.75
  #1b/#1a: 5.92
Y79
  IC50: 87 nM
Y79; ratio of IC50, Y79
  #1/#1a: 4.17
  #1b/#1a: 7.25
MiaPaCa
  IC50: 35 nM
MiaPaCa; ratio of IC50, MiaPaCa
  #1/#1a: 1.46
  #1b/#1a: 8.26

## CCC(C(=O)Nc1ncc(C(=O)NO)s1)c1ccc(OC)cc1 (racemic) [#1, N-hydroxy-2-(2-(4-methoxyphenyl)butanamido)thiazole-5-carboxamide]
K562
  IC50: 145 nM
FaDu
  IC50: 10 nM
SK-Hep-1
  IC50: 374 nM
BT474
  IC50: 1000 nM
SiHa
  IC50: 311 nM
NCI-H820
  IC50: 85 nM
H660
  IC50: 158 nM
A427
  IC50: 309 nM
RKO
  IC50: 267 nM
H1650
  IC50: 363 nM
MOLP-8
  IC50: 13 nM
H1975
  IC50: 114 nM
MSTO-211H
  IC50: 128 nM
Hs695T
  IC50: 372 nM
OCI-Ly3
  IC50: 65 nM
Panc-1
  IC50: 631 nM
RXF-393
  IC50: 398 nM
HCC70
  IC50: 100 nM
Huh-7-luc
  IC50: 185 nM
AN3CA
  IC50: 66 nM
H522
  IC50: 178 nM
N87
  IC50: 120 nM
MM1.S
  IC50: 33 nM
Y79
  IC50: 363 nM
MiaPaCa
  IC50: 51 nM
